From ChEMBL document CHEMBL6096697, “Structure-Guided Discovery of Novel N4-(Substituted Thiazol-2-yl)-N2-(4-Substituted phenyl)pyrimidine-2,4-Diamines as Potent CDK2 and CDK9 Dual Inhibitors with High Oral Bioavailability” (J Med Chem, 2025)
The source made the active and inactive calls. The calls are words filed in the database; no cut-off is given here.

Assays:
HeLa [1] = assay: Induction of cell cycle arrest in human HeLa cells assessed as accumulation at S phase at 0.9 uM incubated for 24 hrs by PI staining based flow cytometry (reference value: 17.84 +/- 1.89 %); assay type: functional
A2780 = assay: Antiproliferative activity against human A2780 cells assessed as cell growth inhibition incubated for 48 hrs by MTT assay; assay type: functional, cell-based; settings: A2780, 48 h
HCT-116 [2] = assay: Induction of cell cycle arrest in human HCT-116 cells assessed as accumulation at S phase at 0.8 uM incubated for 24 hrs by PI staining based flow cytometry (reference value: 20.82 +/- 1.24 %); assay type: functional
[3] = Tmax in Sprague-Dawley rat at 2 mg/kg, iv measured for 36 hrs by MRM analysis; assay type: ADME, organism-based; settings: in vivo
[4] = Toxicity in Sprague-Dawley rat allografted with rat C6 cells assessed as obvious signs of toxicity at 70 mg/kg/day, po treated for 2 weeks; assay type: organism-based; settings: in vivo, 336 h
[5] = Toxicity in Balb/c-nu nude mouse xenografted with human HCT-116 cells assessed as toxicity in heart at 35 to 70 mg/kg/day, po treated for 30 days by H and E staining based analysis; assay type: organism-based; settings: in vivo, 720 h, dose 35-70 mg/kg/day, time 30 day
[6] = AUC (0 to t) in Sprague-Dawley rat at 2 mg/kg, iv measured for 36 hrs by MRM analysis; assay type: ADME, organism-based; settings: in vivo
HCT-116 [7] = assay: Induction of apoptosis in human HCT-116 cells assessed as viable cells at 0.4 uM incubated for 24 hrs by PI staining based flow cytometry (reference value: 79.4 %); assay type: functional; settings: read-out: Activity
HeLa [8] = assay: Induction of apoptosis in human HeLa cells assessed as total apoptotic cells at 3.6 uM incubated for 24 hrs by PI staining based flow cytometry (reference value: 4.65 %); assay type: functional
HeLa [9] = assay: Induction of cell cycle arrest in human HeLa cells assessed as accumulation at G2/M phase at 1.8 uM incubated for 24 hrs by PI staining based flow cytometry (reference value: 24.6 +/- 1.11 %); assay type: functional
HCT-116 [10] = assay: Cytotoxicity against human HCT-116 cells assessed as cell growth inhibition incubated for 48 hrs by MTT assay; assay type: functional, cell-based; settings: HCT-116, 48 h
HCT-116 [11] = assay: Induction of cell cycle arrest in human HCT-116 cells assessed as accumulation at G2/M phase at 0.2 uM incubated for 24 hrs by PI staining based flow cytometry (reference value: 20.6 +/- 3.38 %); assay type: functional
HeLa [12] = assay: Induction of cell cycle arrest in human HeLa cells assessed as accumulation at G2/M phase at 3.6 uM incubated for 24 hrs by PI staining based flow cytometry (reference value: 24.6 +/- 1.11 %); assay type: functional
HCT-116 [13] = assay: Induction of cell cycle arrest in human HCT-116 cells assessed as accumulation at S phase at 0.2 uM incubated for 24 hrs by PI staining based flow cytometry (reference value: 20.82 +/- 1.24 %); assay type: functional
HCT-116 [14] = assay: Induction of cell cycle arrest at G2/M phase in human HCT-116 cells assessed as decrease in p-Cdc2 level incubated for 48 hrs by Western blot analysis; assay type: functional, cell-based; settings: dose <= 0.8 µM
HeLa [15] = assay: Induction of cell cycle arrest in human HeLa cells assessed as accumulation at G1/G0 phase at 3.6 uM incubated for 24 hrs by PI staining based flow cytometry (reference value: 57.63 +/- 1.7 %); assay type: functional
[16] = molecular target: Cyclin-dependent kinase 7/ cyclin H (Homo sapiens, UniProt P50613); assay: Inhibition of CDK7/cyclin H (unknown origin) using […] incubated for 40 mins in presence of ATP by Kinase-Glo assay; assay type: protein-complex assay
HCT-116 [17] = assay: Induction of apoptosis in human HCT-116 cells assessed as decrease in Bcl-2 level upto 0.8 uM incubated for 24 hrs by Western blot analysis; assay type: functional, cell-based
HCT-116 [18] = assay: Induction of apoptosis in human HCT-116 cells assessed as early apoptotic cells at 0.2 uM incubated for 24 hrs by PI staining based flow cytometry (reference value: 0.19 %); assay type: functional
HCT-116 [19] = assay: Induction of cell cycle arrest in human HCT-116 cells assessed as accumulation at G1/G0 phase at 0.4 uM incubated for 24 hrs by PI staining based flow cytometry (reference value: 58.29 +/- 2.01 %); assay type: functional
HeLa [20] = assay: Induction of cell cycle arrest in human HeLa cells assessed as accumulation at G1/G0 phase at 1.8 uM incubated for 24 hrs by PI staining based flow cytometry (reference value: 57.63 +/- 1.7 %); assay type: functional
HeLa [21] = assay: Induction of cell cycle arrest in human HeLa cells assessed as accumulation at sub-G1 phase at 1.8 uM incubated for 24 hrs by PI staining based flow cytometry (reference value: 1.89 +/- 0.56 %); assay type: functional
HeLa [22] = assay: Induction of apoptosis in human HeLa cells assessed as necrotic cells at 1.8 uM incubated for 24 hrs by PI staining based flow cytometry (reference value: 25.5 %); assay type: functional
HCT-116 [23] = assay: Induction of apoptosis in human HCT-116 cells assessed as late apoptotic cells at 0.4 uM incubated for 24 hrs by PI staining based flow cytometry (reference value: 1.11 %); assay type: functional
HepG2 = assay: Antiproliferative activity against human HepG2 cells assessed as cell growth inhibition incubated for 48 hrs by MTT assay; assay type: functional, cell-based; settings: HepG2, 48 h
HCT-116 [24] = assay: Induction of cell cycle arrest in human HCT-116 cells assessed as accumulation at S phase at 0.4 uM incubated for 24 hrs by PI staining based flow cytometry (reference value: 20.82 +/- 1.24 %); assay type: functional
HCT-116 [25] = assay: Induction of cell cycle arrest at G2/M phase in human HCT-116 cells assessed as decrease in p-Cdc2 level at 0.4 uM by Western blot analysis; assay type: functional, cell-based; settings: time <= 48.0 hrs
[26] = molecular target: Cyclin-dependent kinase 9 (Homo sapiens) (UniProt P50750); assay: Inhibition of CDK9 in human HCT-116 cells assessed as reduction in Rpb1 phosphorylation at Ser2/5 incubated for 24 hr s by Western blot analysis; assay type: cell-based; settings: dose <= 0.8 µM
C6 = assay: Antitumor activity against rat C6 cells allografted in Sprague-Dawley rat at 70 mg/kg/day, po treated for 2 weeks relative to control; assay type: functional; settings: C6, 336 h, read-out: TGI
HCT-116 [27] = assay: Induction of cell cycle arrest in human HCT-116 cells assessed as accumulation at G1/G0 phase at 0.8 uM incubated for 24 hrs by PI staining based flow cytometry (reference value: 58.29 +/- 2.01 %); assay type: functional
HeLa [28] = assay: Induction of cell cycle arrest in human HeLa cells assessed as accumulation at sub-G1 phase at 0.9 uM incubated for 24 hrs by PI staining based flow cytometry (reference value: 1.89 +/- 0.56 %); assay type: functional
[29] = molecular target: Cyclin-dependent kinase 2 (Homo sapiens) (UniProt P24941); assay: Inhibition of CDK2 in human HCT-116 cells assessed as reduction in Rb phosphorylation at Ser807/811 incubated for 24 hr s by Western blot analysis; assay type: cell-based; settings: dose <= 0.8 µM
[30] = Antiproliferative activity against HEK293 cells assessed as cell growth inhibition incubated for 48 hrs by MTT assay; assay type: toxicity, cell-based; settings: human
[31] = Half life in Sprague-Dawley rat at 10 mg/kg, po measured for 36 hrs by MRM analysis; assay type: ADME, organism-based; settings: in vivo

Sequence of Cyclin-dependent kinase 7/ cyclin H (P51946 whole entry): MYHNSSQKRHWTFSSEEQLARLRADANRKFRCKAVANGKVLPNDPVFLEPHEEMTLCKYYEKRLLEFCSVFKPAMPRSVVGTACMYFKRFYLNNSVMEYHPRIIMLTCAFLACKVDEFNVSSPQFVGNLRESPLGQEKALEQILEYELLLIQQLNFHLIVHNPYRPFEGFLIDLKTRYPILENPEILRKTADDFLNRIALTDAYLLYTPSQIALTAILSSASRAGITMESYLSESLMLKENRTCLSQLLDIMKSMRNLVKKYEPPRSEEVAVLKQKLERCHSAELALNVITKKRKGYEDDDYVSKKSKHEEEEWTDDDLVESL
Sequence of Cyclin-dependent kinase 7/ cyclin H (P50613 whole entry): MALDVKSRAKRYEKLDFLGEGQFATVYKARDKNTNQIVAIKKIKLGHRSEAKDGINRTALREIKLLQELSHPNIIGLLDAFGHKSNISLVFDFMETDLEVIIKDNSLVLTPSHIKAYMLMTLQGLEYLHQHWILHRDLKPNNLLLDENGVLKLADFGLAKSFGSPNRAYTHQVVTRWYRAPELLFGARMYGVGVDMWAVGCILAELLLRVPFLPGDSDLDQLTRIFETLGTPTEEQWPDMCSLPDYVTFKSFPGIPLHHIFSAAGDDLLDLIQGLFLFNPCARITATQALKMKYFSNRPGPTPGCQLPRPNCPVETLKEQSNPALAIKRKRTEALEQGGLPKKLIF
Sequence of Cyclin-dependent kinase 9 (Homo sapiens) (P50750 whole entry): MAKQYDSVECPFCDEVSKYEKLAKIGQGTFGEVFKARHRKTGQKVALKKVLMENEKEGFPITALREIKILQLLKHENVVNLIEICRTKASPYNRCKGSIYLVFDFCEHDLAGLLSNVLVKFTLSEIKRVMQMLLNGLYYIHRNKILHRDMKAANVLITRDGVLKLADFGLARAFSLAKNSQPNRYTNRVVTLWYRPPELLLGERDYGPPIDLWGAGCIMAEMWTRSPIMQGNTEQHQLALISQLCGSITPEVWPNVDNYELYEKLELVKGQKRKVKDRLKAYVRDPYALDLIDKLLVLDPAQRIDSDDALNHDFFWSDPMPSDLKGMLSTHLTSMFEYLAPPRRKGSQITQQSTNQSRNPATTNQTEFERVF

IC50 (A2780): 22.2 µM | Tmax [3]: 0.2 h | AUC(0-t) at 36 h [6]: 33.5 ng·h/mL | IC50 [16]: 0.215 µM | IC50 (HepG2): 2.09 µM | inhibition [26]: Dose-dependent-effect | inhibition [29]: Dose-dependent-effect | half-life [31]: 4 h
Compound: Cc1cnc(Nc2ccc(S(N)(=O)=O)cc2)nc1Nc1nccs1
Activity (HeLa [1]): 21.67% | Activity (HCT-116 [2]): 20.18% | Activity [4]: Non-toxic | Activity [5]: Non-toxic | viability at 0.4 µM (HCT-116 [7]): 54.4% | Activity (HeLa [8]): 88.3% | Activity (HeLa [9]): 30.58% | IC50 (HCT-116 [10]): 0.462 µM | Activity (HCT-116 [11]): 24.4% | Activity (HeLa [12]): 44.19% | Activity (HCT-116 [13]): 22.83% | Activity (HCT-116 [14]): Dose-dependent-effect | Activity (HeLa [15]): 39.16% | Activity (HCT-116 [17]): Active | Activity (HCT-116 [18]): 2% | Activity (HCT-116 [19]): 44.9% | Activity (HeLa [20]): 50.55% | Activity (HeLa [21]): 1.28% | Activity (HeLa [22]): 0.22% | Activity (HCT-116 [23]): 22.9% | Activity (HCT-116 [24]): 22.25% | Activity (HCT-116 [25]): Time-dependent-effect | inhibition in vivo at 70 mg/kg/day (C6): 86% | Activity (HCT-116 [27]): 43.88% | Activity (HeLa [28]): 1.81% | IC50 at 48 h [30]: 90.1 µM
